Data published in patent US20070015771A1, “Lonidamine analogs” (Threshold pharmaceuticals, Inc., priority 2004, published 2007).
Like-named read-outs stand apart in the source and are kept apart here.

Legend:
H460 cells = assay: Antiproliferation assay (Alamar Blue), H460 cells; format: cell-based
Procedure: (§1) To determine the effect of lonidamine and analogs thereof on cell proliferation, the antiproliferative activity of these compounds was tested in a multi-well Alamar Blue based assay (at 2 h and 3 days). Cell growth in the presence and absence of the test compound (compounds 1-22) was compared, as measured by a fluorescence plate reader at excitation 550 nm and emission 590 nm (see Biosource International Inc., Tech Application Notes, Use of Alamar Blue in the measurement of Cell Viability and Toxicity, Determining IC50). H460 cells (ATCC HTB-177 ([…]), 4,000 cells/well/200 μl) and LNCap cells (ATCC CRL-1740, 6,000 cells/well/200 μl) were seeded in a 96 well plate in RPMI medium (Invitrogen Corporation, Carlsbad, Calif.). After 24 hours, these plates were divided into 3 groups—Control group, 2 h treatment group and 3 day treatment group. In the 2 h treatment group, after 2 h the cells were rinsed to remove the test compound and incubated for 3 days, followed by staining with AlamarBlue. The cells in the 3 day treatment group were incubated for 3 days, followed by staining with AlamarBlue. In the Control group, AlamarBlue was added to the plate at (i) day 0 and (ii) day 3 and measured to establish the control reading.

LNCaP cells = assay: Antiproliferation assay (Alamar Blue), LNCaP cells; format: cell-based, human; conditions: 3 day treatment, read-out: GI50 LNCaP cell 3days
Procedure: as §1

PWR-1E cells [1] = assay: Antiproliferation assay, PWR-1E cells (Example 48); format: cell-based; conditions: read-out: IC50 PWR-1E cell
Procedure: as §1
The effect of lonidamine and analogs thereof on cell proliferation in PWR-1E cells (ATCC CRL-11611) was determined in an antiproliferative assay using PWR-1E cells (5000 cells/well) in Keratinocyte SFM medium (Gibco Products, Invitrogen Corporation, Carlsbad, Calif.) according to the procedure detailed in Example 47 above.

PWR-1E cells [2] = assay: Antiproliferation assay 3 days, PWR-1E cells (Example 49); format: cell-based; conditions: read-out: PWR1e cell line IC50
Procedure: (§2) To determine the effect of lonidamine analogs thereof on cell proliferation, the antiproliferative activity of these compounds was tested in a multi-well Alamar Blue based assay (at 3 days). Cell growth in the presence and absence of the test compound was compared, as measured by a fluoresence plate reader at excitation 550 nm and emission 590 nm (see Biosource International Inc., Tech Application Notes, Use of Alamar Blue in the measurement of Cell Viability and Toxity, Determining IC50). The following cell lines were tested: PWR-1E cells ((ATCC CRL-11611), 3500 cells/well/200 μl in Keratinocyte SFM medium (Gibco Products, Invitrogen Corporation, Carlsbad, Calif.)); DU-145 cells ((ATCC HTB-81), 4000 cells/well/200 μl in MEM Eagles medium (ATCC, Manassas, Va.)); PC3 cells ((ATCC CRL-1435), 4000 cells/200 μl in Modified HAM's F12 medium (ATCC, Manassas, Va.)); PNt2 cells ((Sigma-Aldrich, 95012613-1 VL), 4000 cells/well/200 μl in RPMI medium (Gibco Products, Invitrogen Corporation, Carlsbad, Calif.), BPH-1 ((DSMZ ACC-143), 4000 cells/well/200 μl in RPMI medium (Gibco Products, Invitrogen Corporation, Carlsbad, Calif), and NCI-H460 cells ((ATCC HTB-177), 4000 cells/well/200 μl in RPMI medium (Gibco Products, Invitrogen Corporation, Carlsbad, Calif.)). The cells were seeded in a 96 well plate in a medium specified above. After 24 hours, these plates were divided into 2 groups—Control group and 3 day treatment group. A test compound was added to each plate in the treatment groups at concentrations of […] as tabulated in Table 1 (in 2 μl 1 of 100% DMSO, final DMSO concentration 1% in all wells). For NCI-H460 cells, test compounds were added to each plate in the treatment groups at concentrations of 600, 300, 100, 30, 10, 3, and 1 μM (in 2 μl of 100% DMSO, final DMSO concentration 1% in all wells). The cells in the 3 day treatment group were incubated for 3 days, followed by staining with AlamarBlue. In the Control group, AlamarBlue was added to the plate at (i) day 0 and (ii) day 3 and measured to establish the control reading. […] For the NCI-H460 cells, the capacity of the cells to proliferate was measured 5 hours after addition of AlamarBlue using the same fluorescence plate reader as stated above.

DU-145 cells = assay: Antiproliferation assay 3 days, DU-145 cells; format: cell-based; conditions: 3 day treatment; read-out: Du-145 cell line IC50
Procedure: as §2

BPH-1 = assay: Antiproliferation assay 3 days, BPH-1 cells; format: cell-based; conditions: 3 day treatment; read-out: BPH-1 cell line IC50
Procedure: as §2

PNt2 cells = assay: Antiproliferation assay 3 days, PNt2 cells; format: cell-based; conditions: 3 day treatment; read-out: PNT2c cell line IC50
Procedure: as §2

PC3 cells = assay: Antiproliferation assay 3 days, PC3 cells; format: cell-based, human; conditions: 3 day treatment; read-out: PC-3 cell line IC50
Procedure: as §2

mouse prostate = assay: Mouse study, 10 day effect of Compound 3 on prostate; format: in vivo; conditions: mice
Procedure: (§3) The 10 day effect of Compound 3 on the mouse prostate and its 5 day effect on mouse testis were determined as in Example 51 by using 10 mice per experiment group and the results are illustrated graphically in FIGS. 14-18.

mouse testis = assay: Mouse study, 5 day effect of Compound 3 on testis; format: in vivo; conditions: mice
Procedure: as §3

SH rat prostate = assay: 5 day systemic administration in male SH rats, prostate; format: in vivo; set-up: inhibition in vivo: dose or concentration left out as unconfirmed; conditions: for Prostate shrinkage: male SH rats, oral daily for 5 days at 50 mg/ml, day 6; for inhibition in vivo: Rattus norvegicus, po, 144 h, read-out: Prostate shrinkage
Procedure: (§4) The effect of test compounds (lonidamine and lonidamine analogs) on the SH rat prostate was determined as follows. The test compound was orally administered daily for 5 days to male, SH rat, (n=6, 14 weeks old, Charles River Labs) at 50 mg/ml concentrations (as a 0.5% carboxymethylcellulose formulation). The control rats received an equal amount of the vehicle ([…]). Blood samples were collected 2 hours after administration on day 6, for pharmokinetic analysis of the compounds. On day 6 the rats were sacrificed and the entire prostate and the individual lobes (e.g., the ventral, dorso-lateral, and anterior lobes) were removed and weighed to measure absolute weights. Relative weights of prostate and individual lobes were calculated by dividing the absolute weight by the total body weight of the […]. Relative weights of the entire prostate, the dorsal prostate, and the ventral prostate were calculated by dividing the absolute weight by the total weight of the mouse. The histomorphology of the prostate was also analyzed and compared to that of the control or untreated prostate.

testes = assay: 5 day systemic administration in male SH rats, testis; format: in vivo, rat; set-up: inhibition in vivo: dose or concentration left out as unconfirmed; conditions: for Testis shrinkage: male SH rats, oral daily for 5 days at 50 mg/ml, day 6; for inhibition in vivo: Rattus norvegicus, po, 144 h, read-out: Testis shrinkage
[3] = 5 day systemic administration in male SH rats, pharmacokinetic blood samples; format: in vivo, rat; conditions: oral daily for 5 days at 50 mg/ml, blood 2 hours after administration; for concentration at 2 h: rat, in vivo, read-out: PK
Procedure: as §4

NCI-H460 cells = assay: Antiproliferation assay 3 days, NCI-H460 cells; format: cell-based; conditions: Homo sapiens, NCI-H460, 72 h, read-out: NCI-H460 cell line IC50
Procedure: as §2

advanced breast cancer = conditions: 28 evaluable patients, daily divided oral dose of 600 mg; cited from earlier work
HIF-1-alpha = conditions: cells cultured under hypoxia, cited from earlier work
[4] = test system: cell lines derived from human prostate cells; conditions: LNCaP vs PC3 cells; cited from earlier work
[5] = test system: primary cultures of human prostate epithelial cells; conditions: epithelial vs stromal cells; cited from earlier work
[6] = 3 day treatment, read-out: GI50 H460 cell 3 days
[7] = read-out: GI50 H460 cell 2 hr, 2 h treatment then 3 days incubation

Compound	GI50 (H460 cells; [6]) [µM]	GI50 (H460 cells; [7]) [µM]	GI50 (LNCaP cells) [µM]	IC50 (PWR-1E cells [1]) [µM]	IC50 (PWR-1E cells [2]; 3 day treatment) [µM]	Prostate shrinkage (SH rat prostate) [%]	Testis shrinkage (testes) [%]	PK [3] [µg/mL]	further results
O=C(O)c1nn(Cc2c(Cl)cccc2Cl)c2ccccc12 [Compound 3]	250	398	180	25	69	−2.9	0.4	243	IC50 (DU-145 cells): 224 µM; IC50 (BPH-1): 215 µM; IC50 (PNt2 cells): 257 µM; IC50 (PC3 cells): 191 µM; absolute anterior prostate weight (FIG. 16) (mouse prostate): reduction; absolute dorsal prostate weight (FIG. 15) (mouse prostate): reduction; absolute ventral prostate weight (FIG. 14) (mouse prostate): reduction; absolute left testis weight (FIG. 18) (mouse testis): reduction; absolute right testis weight (FIG. 17) (mouse testis): reduction
O=C(O)c1nn(Cc2ccc(Cl)cc2)c2ccc(Cl)cc12 [Compound 64]	–	–	–	–	–	–	–	–	IC50 (PWR-1E cells [2]; Homo sapiens, PWR-1E, 72 h): > 30 µM; IC50 (NCI-H460 cells): 159 µM; inhibition in vivo (SH rat prostate): -0.4%; inhibition in vivo (testes): -1.3%; concentration at 2 h [3]: 614 µg/mL
CS(=O)(=O)NC(=O)c1nn(Cc2ccc(Cl)cc2Cl)c2ccccc12 [Compound 4]	158	281	178	18	–	–	–	–	–
O=C(NO)c1nn(Cc2ccc(Cl)cc2Cl)c2ccc(Cl)cc12 [Compound 54]	–	–	–	–	1.3	6.8	0.3	120	–
O=C(O)c1nn(Cc2ccc(Cl)cc2Cl)c2ccccc12 [Compound 12]	> 400	251	125	20	31	17	42	153	IC50 (DU-145 cells): 214 µM; IC50 (BPH-1): 230 µM; IC50 (PNt2 cells): 198 µM; IC50 (PC3 cells): 195 µM
O=C(O)c1nn(Cc2ccc(Cl)cc2Cl)c2ccccc12 [lonidamine, 1-(2,4-dichlorobenzyl)-1H-indazole-3-carboxylic acid]	–	–	–	–	–	–	–	–	minor response (advanced breast cancer): 11%; partial response (advanced breast cancer): 11%; reduction of HIF-1-alpha expression/accumulation (nuclear fraction) (HIF-1-alpha; 200 micromolar): about 2 fold; reduction of HIF-1-alpha expression/accumulation (nuclear fraction) (HIF-1-alpha; higher lonidamine concentrations): more than 5 fold; apoptosis in cell lines derived from human prostate cells [4]: induces apoptosis; apoptosis in primary cultures of human prostate epithelial cells [5]: induces apoptosis
CN(O)C(=O)c1nn(Cc2ccc(Cl)cc2Cl)c2ccccc12 [Compound 56]	–	–	–	–	2.6	–	–	–	IC50 (DU-145 cells): 3.25 µM; IC50 (BPH-1): 1.65 µM; IC50 (PNt2 cells): 1.25 µM; IC50 (PC3 cells): 4 µM
N#Cc1ccc(Cn2nc(C(=O)O)c3ccccc32)c(Cl)c1 [Compound 97]	–	–	–	–	–	–	–	–	IC50 (PWR-1E cells [2]; Homo sapiens, PWR-1E, 72 h): 135 µM; IC50 (NCI-H460 cells): > 300 µM; inhibition in vivo (SH rat prostate): 5.5%; inhibition in vivo (testes): 0.9%; concentration at 2 h [3]: 0 µg/mL
NC(=O)c1nn(Cc2ccc(Cl)cc2Cl)c2ccccc12 [Compound 5]	20	40	20	4	5.5	−8.1	−3.5	12	–
O=C(NO)c1nn(Cc2ccccc2)c2ccccc12 [Compound 2]	31.6	400	–	18	18	–	–	–	–
OCc1nn(Cc2ccc(Cl)cc2Cl)c2ccccc12 [Compound 58]	–	–	–	–	–	–	–	–	inhibition in vivo (SH rat prostate): 12.9%; inhibition in vivo (testes): 26.5%; concentration at 2 h [3]: 0 µg/mL
